Legend:
TTR [1] = experiment: TTR editing in primary cyno hepatocytes electroporated with Spy Cas9 protein and dgRNAs (Tables 10, 11); type: cell-based, cynomolgus monkey; settings: primary cyno hepatocytes electroporated with Spy Cas9 protein (RNP) and cyno specific dgRNAs
Description: (§1) Primary liver hepatocytes. Primary human liver hepatocytes (PHH) and primary cynomolgus liver hepatocytes (PCH) (Gibco) were cultured per the manufacturer's protocol (Invitrogen, protocol 11.28.2012). In brief, the cells were thawed and resuspended in hepatocyte thawing medium with supplements (Gibco, Cat. CM7000) followed by centrifugation at 100 g for 10 minutes for human and 80 g for 4 minutes for cyno. The supernatant was discarded and the pelleted cells resuspended in hepatocyte plating medium plus supplement pack (Invitrogen, Cat. A1217601 and CM3000). Cells were counted and plated on Bio-coat collagen I coated 96-well plates (ThermoFisher, Cat. 877272) at a density of 33,000 cells/well for human or 60,000 cells/well for cyno (or 65,000 cells/well when assaying effects on TTR protein, described further below). Plated cells were allowed to settle and adhere for 6 or 24 hours in a tissue culture incubator at 37° C. and 5% CO2 atmosphere. After incubation cells were checked for monolayer formation and media was replaced with hepatocyte culture medium with serum-free supplement pack (Invitrogen, Cat. A1217601 and CM4000).
(§2) […] formation was performed prior to electroporation or transfection of Spy Cas9 protein loaded with guide RNAs (RNPs) onto cells. For dual guide (dgRNAs), individual crRNA and trRNA was pre-annealed by mixing equivalent amounts of reagent and incubating at 95° C. for 2 min and cooling to room temperature. Single guide (sgRNAs) were boiled at 95° C. for 2 min and cooling to room temperature. The boiled dgRNA or sgRNA was incubated with Spy Cas9 protein in Optimem for 10 minutes at room temperature to form a ribonucleoprotein (RNP) complex.
(§3) For RNP electroporation into primary human and cyno hepatocytes, the cells are thawed and resuspended in Lonza electroporation Primary Cell P3 buffer at a concentration of 2500 cells per μL for human hepatocytes and 3500 cells per μL for cyno hepatocytes. A volume of 20 μL of resuspended cells and 5 μL of RNP are mixed together per guide. 20 μL of the mixture is placed into a Lonza electroporation plate. The cells were electroporated using the Lonza nucleofector with the preset protocol EX-147. Post electroporation, the cells are transferred into a Biocoat plate containing pre-warmed maintenance media and placed in a tissue culture incubator at 37° C. and 5% CO2.
(§4) Transfected cells were harvested post-transfection at 24, 48, or 72 hours. The genomic DNA was extracted from each well of a 96-well plate using 50 μL/well BuccalAmp DNA Extraction solution (Epicentre, Cat. QE09050) per manufacturer's protocol. All DNA samples were subjected to PCR and subsequent NGS analyses, as described herein.
(§5) To quantitatively determine the efficiency of editing at the target location in the genome, sequencing was utilized to identify the presence of insertions and deletions introduced by gene editing.
(§6) Primers were designed around the target site within the gene of interest (e.g. TTR), and the genomic area of interest was amplified.
(§7) Additional PCR was performed per the manufacturer's protocols (Illumina) to add chemistry for sequencing. The amplicons were sequenced on an Illumina MiSeq instrument. The reads were aligned to a reference genome (e.g., the human reference genome (hg38), the cynomologus reference genome (mf5), the rat reference genome (rn6), or the mouse reference genome (mm10)) after eliminating those having low quality scores. The resulting files containing the reads were mapped to the reference genome (BAM files), where reads that overlapped the target region of interest were selected and the number of wild type reads versus the number of reads which contain an insertion, substitution, or deletion was calculated.
(§8) The editing percentage (e.g., the “editing efficiency” or “percent editing” or “indel frequency”) is defined as the total number of sequence reads with insertions/deletions (“indels”) or substitutions over the total number of sequence reads, including wild type. […]

TTR [2] = experiment: TTR editing in HEK293_Cas9 cells transfected with dgRNAs (Table 4); type: cell-based, human; settings: HEK293_Cas9 cells (constitutively express Spy Cas9) transfected with dgRNAs
Description: HEK293 Cas9 cell line. The human embryonic kidney adenocarcinoma cell line HEK293 constitutively expressing Spy Cas9 (“HEK293_Cas9”) was cultured in DMEM media supplemented with 10% fetal bovine serum and 500 μg/ml G418. Cells were plated at a density of 10,000 cells/well in a 96-well plate 24 hours prior to transfection. Cells were transfected with Lipofectamine RNAiMAX (ThermoFisher, Cat. 13778150) per the manufacturer's protocol. Cells were transfected with a lipoplex containing individual crRNA (25 nM), trRNA (25 nM), Lipofectamine RNAiMAX (0.3 μL/well) and OptiMem.
as §4, §5, §6, §7
(§9) The editing percentage (e.g., the “editing efficiency” or “percent editing” or “indel frequency”) is defined as the total number of sequence reads with insertions/deletions (“indels”) or substitutions over the total number of sequence reads, including wild type.
(§10) Guides in dgRNA format targeting human TTR and the cynomologus matched sequences were delivered to HEK293 Cas9, HUH7 and HepG2 cell lines, as well as primary human hepatocytes and primary cynomolgus monkey hepatocytes as described in Example 1. Percent editing was determined for crRNAs comprising each guide sequence across each cell type and the guide sequences were then rank ordered based on highest % edit. The screening data for the guide sequences in Table 1 in all five cell lines are listed below (Table 4 through 11).

TTR [3] = experiment: TTR editing in HUH7 cells transfected with Spy Cas9 mRNA and dgRNAs (Table 5); type: cell-based, human; settings: HUH7 cells co-transfected with Spy Cas9 mRNA (SEQ ID NO:2) and dgRNAs
Description: HUH7 cell line. The human hepatocellular carcinoma cell line HUH7 (Japanese Collection of Research Bioresources Cell Bank, Cat. JCRB0403) was cultured in DMEM media supplemented with 10% fetal bovine serum. Cells were plated on at a density of 15,000 cells/well in a 96-well plate 20 hours prior to transfection. Cells were transfected with Lipofectamine MessengerMAX (ThermoFisher, Cat. LMRNA003) per the manufacturer's protocol. Cells were sequentially transfected with a lipoplex containing Spy Cas9 mRNA (100 ng), MessengerMAX (0.3 μL/well) and OptiMem followed by a separate lipoplex containing individual crRNA (25 nM), tracer RNA (25 nM), MessengerMAX (0.3 μL/well) and OptiMem.
as §4, §5, §6, §7, §9, §10

TTR [4] = experiment: TTR editing in HepG2 cells transfected with Spy Cas9 mRNA and dgRNAs (Table 6); type: cell-based, human; settings: HepG2 cells co-transfected with Spy Cas9 mRNA (SEQ ID NO:2) and dgRNAs
Description: HepG2 cell line. The human hepatocellular carcinoma cell line HepG2 (American Type Culture Collection, Cat. HB-8065) was cultured in DMEM media supplemented with 10% fetal bovine serum. Cells were counted and plated on Bio-coat collagen I coated 96-well plates (ThermoFisher, Cat. 877272) at a density of 10,000 cells/well in a 96-well plate 24 hours prior to transfection. Cells were transfected with Lipofectamine 2000 (ThermoFisher, Cat. 11668019) per the manufacturer's protocol. Cells were sequentially transfected with lipoplex containing Spy Cas9 mRNA (100 ng), Lipofectamine 2000 (0.2 μL/well) and OptiMem followed by a separate lipoplex containing individual crRNA (25 nM), tracer RNA (25 nM), Lipofectamine 2000 (0.2 μL/well) and OptiMem.
as §4, §5, §6, §7, §9, §10

TTR [5] = experiment: TTR editing in primary human hepatocytes electroporated with Spy Cas9 protein loaded with dgRNAs (Table 7); type: cell-based; settings: dgRNA electroporated with Spy Cas9 protein (RNP)
Description: as §1, §2, §3, §4, §5, §6, §7, §8

TTR [6] = experiment: TTR editing in primary human hepatocytes transfected with Spy Cas9 protein (RNP) loaded with dgRNAs (Table 8); type: cell-based; settings: dgRNA transfected with Spy Cas9 protein (RNP)
Description: as §1, §2
For RNP lipoplex transfections, cells were transfected with Lipofectamine RNAiMAX (ThermoFisher, Cat. 13778150) per the manufacturer's protocol. Cells were transfected with an RNP containing Spy Cas9 (10 nM), individual guide (10 nM), tracer RNA (10 nM), Lipofectamine RNAiMAX (1.0 μL/well) and OptiMem. RNP formation was performed as described above.
as §4, §5, §6, §7, §9
Guides in dgRNA format targeting human TTR and the cynomologus matched sequences were delivered to HEK293 Cas9, HUH7 and HepG2 cell lines, as well as primary human hepatocytes and primary cynomolgus monkey hepatocytes as described in Example 1. […]

TTR [7] = experiment: TTR editing in primary human hepatocytes transfected with Spy Cas9 mRNA and dgRNAs (Table 9); type: cell-based; settings: dgRNA co-transfected with Spy Cas9 mRNA (SEQ ID NO:2)
Description: as §1
Lipofectamine RNAiMax (ThermoFisher, Cat. 13778150) based transfections were conducted as per the manufacturer's protocol. Cells were sequentially transfected with a lipoplex containing Spy Cas9 mRNA (100 ng), Lipofectamine RNAiMax (0.4 μL/well) and OptiMem followed by a separate lipoplex containing crRNA (25 nM) and tracer RNA (25 nM) or sgRNA (25 nM), Lipofectamine RNAiMax (0.4 μL/well) and OptiMem.
as §4, §5, §6, §7, §9, §10

Sequence	Avg % Deletion (TTR [2]) [%]	Avg % Edit (TTR [2]) [%]	Avg % Insert (TTR [2]) [%]	Avg % Deletion (TTR [3]) [%]	Avg % Edit (TTR [3]) [%]	Avg % Insert (TTR [3]) [%]	Avg % Deletion (TTR [4]) [%]	Avg % Edit (TTR [4]) [%]	Avg % Insert (TTR [4]) [%]	Avg % Deletion (TTR [5]) [%]	Avg % Edit (TTR [5]) [%]	Avg % Insert (TTR [5]) [%]	Avg % Deletion (TTR [6]) [%]	Avg % Edit (TTR [6]) [%]	Avg % Insert (TTR [6]) [%]	Avg % Deletion (TTR [7]) [%]	Avg % Edit (TTR [7]) [%]	Avg % Insert (TTR [7]) [%]	further results
AAAAGGCUGCUGAUGAGACC (tested as dual guide RNA, chemistry not given here) [CR005372]																			Avg % Deletion (TTR [1]): 17.16%; Avg % Edit (TTR [1]): 17.98%; Avg % Insert (TTR [1]): 0.83%
AAAGGCUGCUGAUGAGACCU (tested as dual guide RNA, chemistry not given here) [CR005364]																			Avg % Deletion (TTR [1]): 27.11%; Avg % Edit (TTR [1]): 27.70%; Avg % Insert (TTR [1]): 0.58%
GGCGGCAAUGGUGUAGCGGC (tested as dual guide RNA, chemistry not given here) [CR003378]	16.48	20.97	4.49	32.27	40.73	9.73	1.34	8.16	6.82	0.73	4.60	3.87	0.42	8.66	8.24	1.37	9.80	8.50	
GGGCGGCAAUGGUGUAGCGG (tested as dual guide RNA, chemistry not given here) [CR003379]	20.98	26.32	5.34	16.48	19.18	3.38	2.04	19.74	17.70	0.27	6.57	6.30	0.34	16.86	16.51	1.27	13.20	12.00	
GGGGCUCAGCAGGGCGGCAA (tested as dual guide RNA, chemistry not given here) [CR003381]	18.23	22.04	3.82	99.70	99.70	1.92	0.63	6.81	6.18	0.50	6.20	5.83	0.27	7.15	6.88	0.73	4.07	3.33	
GUAUUCACAGCCAACGACUC (tested as dual guide RNA, chemistry not given here) [CR003373]	12.25	13.55	1.31	25.12	27.29	3.31	1.77	17.69	15.92	0.07	0.87	0.83	0.19	3.64	3.44	0.37	1.40	1.00	
UGCACGGCCACAUUGAUGGC (tested as dual guide RNA, chemistry not given here) [CR003349]	5.16	13.19	8.03	4.82	14.14	9.73	3.91	8.36	4.46	1.87	4.10	2.33	1.83	10.83	9.00	1.70	2.57	0.90	

From patent US11795460B2, “Compositions and methods for TTR gene editing and treating ATTR amyloidosis” (Intellia Therapeutics, Inc., priority 2017, dated 2023)
